Source: patent publication US20120128821A1, “PROBIOTIC MICROORGANISMS ISOLATED FROM DONKEY MILK” (EUROLACTIS GROUP SA, priority 2009, published 2012)

Assay: Production of organic acids after fermentation in donkey milk (HPLC)
Details: absolute area, produced during fermentation, grown in donkey milk
Procedure: The production of organic acids after fermentation was determined by high-performance liquid chromatography of filtered supernatants (Vulevic, Rastall & Gibson, 2004; Nazzaro et al. 2009), using a Gold System apparatus equipped with an ultraviolet detector (Beckman, CA, USA). Samples were loaded onto a pre-packed Aminex HPX-87 column (300 7.8 mm, Bio-Rad, Hercules, Calif., USA) and eluted with […] sulphuric acid. Total running time was 40 min; flow rate was 0.6 ml/min; injection volume was 20 μl; and detection wavelength was 210 nm.
In the following tables are reported the amount of butyric acid and citric acid produced during fermentation by strains of the invention and some strains of reference, grown in donkey milk. The data are expressed in terms of absolute area (mm^2): […]

Lactobacillus acidophilus
Amount of butyric acid: 26.21 mm^2
Amount of citric acid: 51.37 mm^2
